We go through 7 compounds from ChEMBL document CHEMBL1151828, “Screening of flavonoids as candidate antibiotics against Enterococcus faecalis” (J Nat Prod, 2009).

SMILES strings stand for the structures. Values after ≈ are worked out from the molar mass of the structure shown.

As usually defined, the MIC is the lowest concentration that inhibits growth of the organism. High values mean a need for much substance, low ones inhibition by little substance.

The nature of series [1]: Solubility at 1 mM. It is filed as physicochemical. The note with it: 1000 µM.
Series [2] relates to Enterococcus faecalis. As to the kind of experiment: Antimicrobial activity against Enterococcus faecalis after 20 hrs by broth microdilution method. It counts as functional. On the technique in general: Dilution methods test growth across graded concentrations, often in twofold steps.
Series [3] concerns Enterococcus faecalis. Nature of the series: Antimicrobial activity against vancomycin-resistant Enterococcus faecalis after 20 hrs by broth microdilution method. It is filed as functional.

`O=C1c2ccc(O)cc2OC(c2cc(O)c(O)c(O)c2)C1O` (centres undefined) [DIHYDROBINETIN]: in series [1], the solubility result is reported as “Insoluble”. Moreover, the MIC in series [2] is 256 µg/mL (≈ 841 µM); in series [3], greater than 512 µg/mL.
In the case of `O=C1C[C@@H](c2ccccc2)Oc2cc(O)cc(O)c21` [PINOCEMBRIN], the MIC in series [2] is greater than 512 µg/mL.
Consider `O=C1C[C@@H](c2ccc(O)cc2)Oc2cc(O)cc(O)c21` [NARINGENIN], for which the MIC in series [2] was 256 µg/mL (≈ 940 µM); in series [3], 512 µg/mL (≈ 1880 µM).
As to `O=C1c2c(O)cc(O)cc2O[C@H](c2ccc(O)c(O)c2)[C@H]1O` [(+)-TAXIFOLIN], the minimum inhibitory concentration (MIC) in series [2] is 128 µg/mL (≈ 421 µM); in series [3] it was 512 µg/mL (≈ 1680 µM).
As for `O=C1CC(c2ccccc2O)Oc2ccc(O)cc21` (centres undefined), the minimal inhibitory concentration (MIC) in series [2] and in series [3] was 256 µg/mL (≈ 999 µM) in each case.
For the compound `O=C1C[C@@H](c2ccc(O)c(O)c2)Oc2cc(O)cc(O)c21` [ERIODICTYOL], the minimum inhibitory concentration (MIC) amounted to 256 µg/mL (≈ 888 µM) in series [2] and 512 µg/mL (≈ 1780 µM) in series [3].
For `O=C1CC(c2cccc(O)c2)Oc2ccccc21` (centres undefined) [3'-HYDROXYFLAVANONE], the minimum inhibitory concentration (MIC) in series [2] and in series [3] was 256 µg/mL (≈ 1070 µM) each time.
